Data as given in US6121055A, “Methods and devices for conducting specific binding assays” (priority 1995, dated 2000).
Counter-ions that a name gives are not always drawn.

What was measured:
[1] = cited from earlier work; for SOLUBILITY (parts H2O): Table 1, numeric; for SOLUBILITY (in words): Table 1, water; for SOL. IN PARTS H2O: Table 2
anti-digoxin antibody = test: Enzyme immunoassay for digoxin; type: binding, rabbit
From the text: An enzyme-labelled digoxin assay using the method of the present invention is adapted from a commercial digoxin kit (Immunotech, Allston, Mass.). The only changes in reagents are the inclusion of 20% sorbitol in the color developer solution, and the substitution of 50 microliters of Tachisorb-R (Behring Diagnostics, La Jolla, Calif.) for the 500 microliters of precipitating solution (goat-anti rabbit IgG) provided with the kit.
In two mL, screw-top microcentrifuge tubes (Sarstedt, Princeton, N.J.), 1 mL of sorbitol-color developer is dispensed, then overlaid with 0.4 mL of dibutyl phthalate. A 200 microliter assay mixture is prepared by adding 100 microliters of Tachisorb-R, 25 microliters of digoxin-enzyme (alkaline phosphatase) conjugate, 25 microliters of sample (serum-based standards), and 50 microliters of antibody solution. The assay is incubated at room temperature for 15 minutes, centrifuged two minutes at 10,000×g, and further incubated one hour for color development.
Color is measured at 400 nm in a Shimadzu Model UV-160 spectrophotometer. Because of the opacity of the polypropylene tubes, results for each tube are corrected for nonspecific absorbance at 500 nm.

[2] = test system: antisera to synthetic hTGF-a (1-50); test: RIA for human TGF-a using antisera recognizing the complete, bioactive synthetic hormone; type: binding, rabbit
Experimental: (D) RIA for Human TGF-a Using Antisera Recognizing the Complete, Bioactive Synthetic Hormone Synthesis of hTGF-a (1-50) Peptide and Immunization:
The sequence of human TGF-a as determined by DeRynck et al. (Cell 38:287-297, 1985) was used to synthesize the low molecular weight form of the hormone (residues 1-50) using an automated instrument (Biosearch). The resultant peptide was used to immunize rabbits repeatedly using 0.5 mg of peptide at multiple sites.
The assay used reference standards and radio-iodinated tracer prepared from purified, bioactive synthetic rat TGF-alpha (Peninsula Laboratories, Belmont, Calif.). Label cocktail was prepared by mixing, in 1.5 L total volume, 300 L 10×buffer (0.5 M Hepes, 2 mg/L BSA, 0.2% sodium azide), 600 L 10% nonidet P-40 (Shell Oil Co.), 580 L distilled water, and 30 L of labeled peptide (rTGF-a, 800,000 CPM). The antibody suspension was prepared essentially as described in (A) above. To each 0.4 L tube containg 0.25-0.3 L cushions of butyl phthalate was added 25 L of label cocktail, 50 L of sample, and 25 L of antibody suspension. Where indicated, 10 L of 1M DTT (freshly dissolved in 0.5M sodium bicarbonate) was added to each assay mixture. After mixing, the tubes were incubated overnight at 4° C., then processed as described in (A) except that the detection instrument was a gamma counter (Abbott Model 200).

[3] = test system: anti-fragment antisera (rat TGF-a c-terminal peptide); test: TGF-a RIA: bioactive peptides & methyl cinnamate cushions; type: binding, rabbit
Experimental: (§1) All assays employed as assay vessels 0.4 L microcentrifuge tubes containing 0.25-0.3 L of cushion material. Labeled peptide was produced by chloramine Tiodination (specific activity ranged from 200-500 Ci/g). Unless otherwise specified, all solid phases were prepared using S. aureus suspensions. Centrifugations were for 30-60 seconds in a microcentrifuge at approximately 10,000×g.
(§2) (B) RIA Using Anti-Fragment Antisera and Bioactive Syntheticpeptide as Tracer and Reference Standard, with Methylcinnamate Cushions and Assay Reactants Predispensed.
(§3) Trans-methyl cinnamate (Table 1, item 11, Aldrich Chemical Co., St. Louis, Mo.) was melted by brief heating in a microwave oven just prior to dispensing into assay vessels. The cushion solidified spontaneously at room temperature. The solid phase was prepared as in (A) above in double strength assay buffer (including 4% NP-40 nonionic detergent). This suspension was stable at 4° C. for at least one year. Label cocktail (1.5 L) was prepared using 0.3 L 10×assay buffer (minus nonionic detergent), 0.6 L 10% NP-40, 0.58 L distilled water, and 30 L label concentrate (600,000 CPM) prepared from bioactive synthetic rat TGF-alpha (res. 1-50).
(§4) Into each assay was loaded 50 L of reference standard sample (bioactive, synthetic rat TGF-alpha, res. 1-50), 25 L of label cocktail, followed by 25 L of solid phase suspension. Where indicated, all assay reactants were predispensed and equilibrated for at least 3 days at 4 C prior to initiation of the assay by sample addition and mixing. After the indicated incubation periods, assay vessels were centrifuged and counted using radiation shields (FIG. 3, lacking disk 52) in an gamma counter (Abbott Model 200).
Two temperature and mixing treatments were compared with four incubation times. One treatment consisted of incubating at 32° C., just below the melting temperature of the cushion, and mixing at 15 minute intervals. The second treatment consisted of incubating at 40° C., above the melting temperature of the cushion, with mixing only at initiation of incubation (prior to warming). Both assays yielded low nonspecific binding, high specific binding, and high competition with reference standards, even after only 30 minutes of incubation.

[4] = test system: anti-fragment antisera (rat TGF-a c-terminal peptide); test: TGF-a RIA: predispensed reactants & methyl cinnamate cushions; type: binding, rabbit
Experimental: as §1, §2, §3, §4

[5] = REDUCED WITH DTT, 1.25 nM in assay

In the case of `CCCCOC(=O)C=Cc1ccccc1` [BUTYL CINNAMATE], the “SOLUBILITY (parts H2O)” value [1] is listed as 200 parts H2O.

For `CCCCOC(=O)CC(O)(CC(=O)OCCCC)C(=O)OCCCC` [BUTYL CITRATE], the “SOLUBILITY (in words)” value [1] is given as “INSOL”.

In the case of `CCCCOC(=O)c1ccccc1C(=O)OCCCC` [DIBUTYL PHTHALATE], the “SOLUBILITY (parts H2O)” value [1] is listed as 2500 parts H2O.

In the case of `CCOC(=O)[C@H](O)[C@@H](O)C(=O)OCC` [DIETHYL L-TARTRATE], the “SOLUBILITY (in words)” value [1] is listed as “slightly”.

For `CCOC(=O)/C=C\C(=O)OCC` [DIETHYL MALEATE], the “SOLUBILITY (in words)” value [1] is listed as “INSOL”.

For `CCOC(=O)CC(=O)OCC` [DIETHYL MALONATE], the “SOLUBILITY (parts H2O)” value [1] is given as 50 parts H2O.

In the case of `COC(=O)C(=O)OC` [DIMETHYL OXALATE], the “SOLUBILITY (parts H2O)” value [1] is given as 17 parts H2O.

In the case of `COC(=O)c1ccccc1C(=O)OC` [DIMETHYL PHTHALATE], the “SOLUBILITY (parts H2O)” value [1] is listed as 232 parts H2O.

In the case of `COC(=O)CCC(=O)OC` [DIMETHYL SUCCINATE], the “SOLUBILITY (parts H2O)” value [1] is listed as 120 parts H2O.

For `CCOC(=O)CC(C)=O` [ETHYL ACETOACETATE], the “SOLUBILITY (parts H2O)” value [1] is listed as 35 parts H2O.

For `CCOC(=O)CC(=O)c1ccccc1` [ETHYL BENZOYLACETATE], the “SOLUBILITY (in words)” value [1] is listed as “INSOL”.

In the case of `CCOC(=O)C=Cc1ccccc1` [ETHYL CINNAMATE], the “SOLUBILITY (in words)” value [1] is listed as “INSOL”.

For `CCOC(=O)CC(=O)C(=O)OCC` [ETHYL OXALACETATE], the “SOLUBILITY (in words)” value [1] is listed as “INSOL”.

In the case of `CCOC(=O)c1ccccc1O` [ETHYL SALICYLATE], the “SOLUBILITY (in words)” value [1] is given as “SLIGHTLY”.

In the case of `[Br-].[Li+]` [LITHIUM BROMIDE], the “SOL. IN PARTS H2O” value [1] is listed as “.6 PARTS H2O”.

For `[Cl-].[Li+]` [LITHIUM CHLORIDE], the “SOL. IN PARTS H2O” value [1] is given as 1.3 PARTS H2O.

For `COC(=O)c1ccccc1` [METHYL BENZOATE], the “SOLUBILITY (in words)” value [1] is listed as “INSOL”.

In the case of `COC(=O)/C=C/c1ccccc1` [METHYL CINNAMATE], the “SOLUBILITY (in words)” value [1] is listed as “ALMOST INSOL”.

In the case of `COC(=O)c1ccco1` [METHYL FUROATE], the “SOLUBILITY (in words)” value [1] is given as “SLIGHTLY”.

In the case of `COC(=O)c1ccccc1O` [METHYL SALICYLATE], the “SOLUBILITY (parts H2O)” value [1] is given as 1500 parts H2O.

In the case of `CC(O)CO` (stereo not drawn) [PROPYLENE GLYCOL], the miscibility ([1]; Table 2 comment) is given as “MISC WITH H2O, CHCL3”.

For `C[C@H]1O[C@@H](O[C@H]2[C@@H](O)C[C@H](O[C@H]3[C@@H](O)C[C@H](O[C@H]4CC[C@@]5(C)[C@H](CC[C@@H]6[C@@H]5C[C@@H](O)[C@]5(C)[C@@H](C7=CC(=O)OC7)CC[C@]65O)C4)O[C@@H]3C)O[C@@H]2C)C[C@H](O)[C@@H]1O` [digoxin], the “ABSORBANCE AT 400 nm (corrected)” value (anti-digoxin antibody; sample 1.0) was 150, the “ABSORBANCE AT 400 nm (corrected)” value (anti-digoxin antibody; sample 2.0) was 100 and the “ABSORBANCE AT 400 nm (corrected)” value (anti-digoxin antibody; sample 4.0) was 80.

In the case of “BIOLOGICAL TGFALPHA: BIOLOGICAL TGFALPHA, PARTIALLY PURIFIED FROM CULTURE FLUIDS (A375 CELLS)”, the “PERCENTAGE OF MAXIMAL BINDING, corrected for nonspecific binding” value (shortened to “PERCENTAGE OF MAXIMAL BINDING, corrected”) [2, 5] is reported as 63.3% and the “PERCENTAGE OF MAXIMAL BINDING, corrected” value ([2]; UNREDUCED, 1.25 nM in assay) is reported as 89.7%.

For “RTGF, BIOACTIVE: purified, bioactive synthetic rat TGF-alpha (Peninsula Laboratories)”, the “PERCENTAGE OF MAXIMAL BINDING, corrected” value ([2]; REDUCED WITH DTT, 0.15 nM in assay) was 93.8%, the “PERCENTAGE OF MAXIMAL BINDING, corrected” value ([2]; REDUCED WITH DTT, 0.32 nM in assay) was 87.1% and the “PERCENTAGE OF MAXIMAL BINDING, corrected” value ([2]; REDUCED WITH DTT, 0.62 nM in assay) was 79.9%. The “PERCENTAGE OF MAXIMAL BINDING, corrected” value [2, 5] was 74.4%, the “PERCENTAGE OF MAXIMAL BINDING, corrected” value ([2]; REDUCED WITH DTT, 2.50 nM in assay) was 64.9% and the “PERCENTAGE OF MAXIMAL BINDING, corrected” value ([2]; REDUCED WITH DTT, 5.00 nM in assay) was 47.3%. The “PERCENTAGE OF MAXIMAL BINDING, corrected” value ([2]; UNREDUCED, 0.15 nM in assay) was 83.2%, the “PERCENTAGE OF MAXIMAL BINDING, corrected” value ([2]; UNREDUCED, 0.32 nM in assay) was 77.3% and the “PERCENTAGE OF MAXIMAL BINDING, corrected” value ([2]; UNREDUCED, 0.62 nM in assay) was 68.5%. The “PERCENTAGE OF MAXIMAL BINDING, corrected” value ([2]; UNREDUCED, 1.25 nM in assay) was 58.5%, the “PERCENTAGE OF MAXIMAL BINDING, corrected” value ([2]; UNREDUCED, 2.50 nM in assay) was 54.0% and the “PERCENTAGE OF MAXIMAL BINDING, corrected” value ([2]; UNREDUCED, 5.00 nM in assay) was 45.7%.

In the case of “synthetic rat TGF-alpha: bioactive, synthetic rat TGF-alpha, res. 1-50”, the “% bound with 0.3 nM sample” value ([3]; 30 minutes, 32 C) is reported as 21.9%, the “% bound with 10 nM sample” value ([3]; 30 minutes, 32 C) is reported as 5.6% and the “% bound with 0.3 nM sample” value ([3]; 30 minutes, 40 C) is reported as 23.8%. The “% bound with 10 nM sample” value ([3]; 30 minutes, 40 C) was 6.9%, the “% bound with 0.3 nM sample” value ([3]; 60 minutes, 32 C) was 25.2% and the “% bound with 10 nM sample” value ([3]; 60 minutes, 32 C) was 6.2%. The “% bound with 0.3 nM sample” value ([3]; 60 minutes, 40 C) was 29.4%, the “% bound with 10 nM sample” value ([3]; 60 minutes, 40 C) was 7.1% and the “% bound with 0.3 nM sample” value ([3]; 90 minutes, 32 C) was 26.2%. The “% bound with 10 nM sample” value ([3]; 90 minutes, 32 C) was 6.4%, the “% bound with 0.3 nM sample” value ([3]; 90 minutes, 40 C) was 32.9% and the “% bound with 10 nM sample” value ([3]; 90 minutes, 40 C) was 7.6%. For the same compound, the “% bound with 0.3 nM sample” value ([3]; 120 minutes, 32 C) was 25.6%, the “% bound with 10 nM sample” value ([3]; 120 minutes, 32 C) was 6.1% and the “% bound with 0.3 nM sample” value ([3]; 120 minutes, 40 C) was 35.8%. For the same compound, the “% bound with 10 nM sample” value ([3]; 120 minutes, 40 C) was 7.6%, the “label bound, CPM” value ([4]; 2.5 nM sample competition, total CPM = 7872) was 642 CPM and the “% OF MAX. BOUND” value ([4]; 2.5 nM sample, 120 minutes, 37 C) was 48.6%. The “LABEL BOUND” value ([4]; 2.5 nM sample, 120 minutes, 37 C, N = 6) was 8.2%.
